Our source for the T/C values is PubChem BioAssay AID248 (DTP/NCI, 2004).

The subject of the assay is L1210 leukemia ip in BDF1 mice, survival T/C. The assay can be described thus: NCI In Vivo Anticancer Drug Screen. Data for tumor model L1210 Leukemia (intraperitoneal) in B6D2F1 (BDF1) mice. As to conditions: endpoint: mean survival time, higher = longer survival. A digest of the protocol:
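Transplantable tumor model; survival measured in treated vs vehicle control mice. Value = treated/control.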

The mark [1] stands for this setting: dose: 100.0 mg/kg/injection, schedule: Q04DX003 (ip), vehicle: Klucel (hydroxypropylcellulose) (HPC).
Setting [2] is: dose: 200.0 mg/kg/injection, schedule: Q04DX003 (ip), vehicle: Klucel (hydroxypropylcellulose) (HPC).
Setting [3] is: dose: 400.0 mg/kg/injection, schedule: Q04DX003 (ip), vehicle: Klucel (hydroxypropylcellulose) (HPC).
Where [4] appears, read: dose: 100.0 mg/kg/injection, schedule: Q01DX001 (ip), vehicle: saline.
The mark [5] stands for this setting: dose: 200.0 mg/kg/injection, schedule: Q01DX001 (ip), vehicle: saline.
[6] abbreviates: dose: 100.0 mg/kg/injection, schedule: Q01DX001 (ip), vehicle: carboxymethylcellulose (CMC).
Where [7] appears, read: dose: 200.0 mg/kg/injection, schedule: Q01DX001 (ip), vehicle: carboxymethylcellulose (CMC).

Structures are written as SMILES. Toxic doses and inconclusive results are not listed.

Consider `Cc1cc(Cl)c(Cl)cc1NC(=O)Nc1cccc(C(F)(F)F)c1`, for which the T/C is 93 % of control (dose: 100.0 mg/kg/injection, schedule: Q01DX009 (ip), vehicle: carboxymethylcellulose (CMC)); 91 % of control (dose: 200.0 mg/kg/injection, schedule: Q01DX009 (ip), vehicle: carboxymethylcellulose (CMC)); 102 % of control (dose: 400.0 mg/kg/injection, schedule: Q01DX009 (ip), vehicle: carboxymethylcellulose (CMC)).

As for `O=[N+]([O-])c1ccc(C=Nc2ccccc2-c2ccccc2)s1`, the T/C is, setting by setting: under setting [1], 98 % of control; under setting [2], 98 % of control; under setting [3], 95 % of control.

`Nc1nc(=S)[nH]c(N)c1N`: the T/C (dose: 125.0 mg/kg/injection, schedule: Q01DX Z (ip), vehicle: methylcellulose (MC)) is 93 % of control.

Turning to `CN=C(N)c1ccc(N=C(N)c2ccc(-c3ccc(C(N)=Nc4ccc(C(N)=NC)cc4)cc3)cc2)cc1`, the T/C by setting is: (dose: 2.25 mg/kg/injection, schedule: Q01DX Z (ip), vehicle: carboxymethylcellulose (CMC)) 109 % of control; (dose: 4.5 mg/kg/injection, schedule: Q01DX Z (ip), vehicle: carboxymethylcellulose (CMC)) 115 % of control; (dose: 18.0 mg/kg/injection, schedule: Q01DX Z (ip), vehicle: carboxymethylcellulose (CMC)) 184 % of control; (dose: 50.0 mg/kg/injection, schedule: Q01DX Z (oral), vehicle: water) 101 % of control; (dose: 100.0 mg/kg/injection, schedule: Q01DX Z (oral), vehicle: water) 112 % of control; (dose: 200.0 mg/kg/injection, schedule: Q01DX Z (oral), vehicle: water) 107 % of control.

For the compound `NCCNC12CC3CC(CC(C3)C1)C2`, the T/C is 113 % of control (dose: 100.0 mg/kg/injection, schedule: Q04DX002 (ip), vehicle: saline) and 107 % of control (dose: 200.0 mg/kg/injection, schedule: Q04DX002 (ip), vehicle: saline).

Consider `CC(=O)OC(C)c1ccccc1` (configuration not stated), for which the T/C is, setting by setting: (dose: 100.0 mg/kg/injection, schedule: Q01DX009 (ip), vehicle: Klucel (hydroxypropylcellulose) (HPC)) 112 % of control; (dose: 200.0 mg/kg/injection, schedule: Q01DX009 (ip), vehicle: Klucel (hydroxypropylcellulose) (HPC)) 106 % of control; (dose: 400.0 mg/kg/injection, schedule: Q01DX009 (ip), vehicle: Klucel (hydroxypropylcellulose) (HPC)) 101 % of control.

Regarding `CCOC(=N)c1cc([N+](=O)[O-])cc([N+](=O)[O-])c1`, the T/C was 102 % of control under setting [4]; 104 % of control under setting [5]; 102 % of control (dose: 400.0 mg/kg/injection, schedule: Q01DX001 (ip), vehicle: saline).

As for `CN(C)c1ccc(/C=C/c2ccc3ccccc3n2)c(F)c1`, the T/C is, setting by setting: under setting [1], 100 % of control; under setting [2], 98 % of control; under setting [3], 93 % of control.

On to `O=C1OC(=O)C2C3c4ccccc4C(c4ccccc43)C12` (configuration not stated), for which the T/C is 103 % of control (dose: 25.0 mg/kg/injection, schedule: Q01DX009 (ip), vehicle: saline); 98 % of control (dose: 50.0 mg/kg/injection, schedule: Q01DX009 (ip), vehicle: saline); 96 % of control (dose: 50.0 mg/kg/injection, schedule: Q04DX003 (ip), vehicle: saline); 98 % of control under setting [4]; 114 % of control (dose: 100.0 mg/kg/injection, schedule: Q01DX009 (ip), vehicle: saline); 103 % of control under setting [1]. For the same compound, the T/C reads like this: (dose: 100.0 mg/kg/injection, schedule: Q04DX003 (ip), vehicle: saline) 98 % of control; under setting [5], 88 % of control; under setting [2], 90 % of control.

On to `CCOC(=O)COCc1ccccc1`, for which the T/C (dose: 25.0 mg/kg/injection, schedule: Q01DX009 (ip), vehicle: saline sonified) was 98 % of control; the T/C (dose: 50.0 mg/kg/injection, schedule: Q01DX009 (ip), vehicle: saline sonified) is 93 % of control; the T/C (dose: 100.0 mg/kg/injection, schedule: Q01DX009 (ip), vehicle: saline sonified) is 98 % of control; the T/C (dose: 100.0 mg/kg/injection, schedule: Q04DX003 (ip), vehicle: saline sonified) was 97 % of control; the T/C (dose: 176.0 mg/kg/injection, schedule: Q04DX003 (ip), vehicle: saline sonified) is 98 % of control; the T/C (dose: 200.0 mg/kg/injection, schedule: Q04DX003 (ip), vehicle: saline sonified) is 90 % of control. Further, the T/C (dose: 264.0 mg/kg/injection, schedule: Q04DX003 (ip), vehicle: saline sonified) was 91 % of control and the T/C (dose: 400.0 mg/kg/injection, schedule: Q04DX003 (ip), vehicle: saline sonified) was 104 % of control.

As to `Cc1ccc([N+](=O)[O-])cc1NC(=O)c1ccccc1`, the T/C is, setting by setting: under setting [6], 93 % of control; under setting [7], 96 % of control; (dose: 400.0 mg/kg/injection, schedule: Q01DX001 (ip), vehicle: carboxymethylcellulose (CMC)) 93 % of control.

As for `COC(=O)C(NC(=O)COc1ccccc1[N+](=O)[O-])C(=O)OC`, the T/C is 100 % of control (dose: 100.0 mg/kg/injection, schedule: Q01DX001 (ip), vehicle: saline with Tween-80); 95 % of control (dose: 200.0 mg/kg/injection, schedule: Q01DX001 (ip), vehicle: saline with Tween-80); 97 % of control (dose: 400.0 mg/kg/injection, schedule: Q01DX001 (ip), vehicle: saline with Tween-80).

Take `CS(=O)(=O)O/C=C(\C#N)C(=O)O`: the T/C under setting [6] is 103 % of control and the T/C under setting [7] was 106 % of control.

`CCCCCCCCCCCCCCCCCC/C(CC)=N/Nc1ccc([N+](=O)[O-])cc1[N+](=O)[O-]`: the T/C (dose: 100.0 mg/kg/injection, schedule: Q01DX001 (ip), vehicle: Klucel (hydroxypropylcellulose) (HPC)) was 101 % of control; the T/C (dose: 200.0 mg/kg/injection, schedule: Q01DX001 (ip), vehicle: Klucel (hydroxypropylcellulose) (HPC)) is 103 % of control; the T/C (dose: 400.0 mg/kg/injection, schedule: Q01DX001 (ip), vehicle: Klucel (hydroxypropylcellulose) (HPC)) is 97 % of control.
